In publication PMC8318231, “Rate-of-Kill (RoK) assays to triage large compound sets for Chagas disease drug discovery: Application to GSK Chagas Box” (PLoS Neglected Tropical Diseases, 2021):

Columns and labels:
[1] = test system: T. cruzi Tulahuen trypomastigotes; assay: T. cruzi trypomastigote assay (Cell Titer-Glo viability, ATP luminescence); format: cell-based, Trypanosoma cruzi; conditions: for Trypomastigotes pIC50 48 hours: 48 hours incubation; for Trypomastigotes pIC50 48 hours / Trypomastigotes pIC50 72 hours: pIC50 = -log10 IC50 in molar units; for Trypomastigotes pIC50 72 hours: 72 hours incubation; for 48 pIC50 / 72 pIC50: trypomastigote assay; for 48 pIC50: 48 h; for 72 pIC50: 72 h
Protocol: T. cruzi Tulahuen trypomastigotes obtained from the supernatants of LLC-MK2 infected cultures in a 225 cm^2 T-Flasks harvested between days 5 and 8 of infection. Trypomastigotes (5 × 10^4 per well) in 50 μl of DMEM/ 2% FBS were dispensed into white 384 plates (Greiner) pre-stamped with 250 nl compound a single-shot final concentration of 5 μM, or in dose response. […] Cell Titer-Glo cell viability solution (Promega) was added to each well (50 μL) incubated at room temperature for 10 min and luminescence read by Envision plate reader (Perkin Elmer). This assay quantifies the amount of ATP present which is directly proportional to the number of metabolically active cells. All data were normalised (100% effect control for no cells and 0% effect control for DMSO). This assay was adapted from MacLean et al., 2018 [22].

TcCYP51 = conditions: formerly reported; cited from earlier work

Compound	Trypomastigotes pIC50 48 hours [1]	Trypomastigotes pIC50 72 hours [1]	CYP51 pIC50 (TcCYP51)	48 pIC50 ([1]; figure 1A)	72 pIC50 ([1]; figure 1A)	72 pIC50 ([1]; figure 1B)
O=C(NCc1nnc2n1CCCCC2)c1ccc(-c2ccc(F)cc2)o1 [TCMDC-143446]	< 4.3	4.7	4.1	–	–	–
c1cc(-c2ncc(-c3ccn[nH]3)s2)ccn1 [TCMDC-143461]	< 4.3	< 4.3	7.4	< 4.3	< 4.3	< 4.3
CNc1cncc(C2CCCN2C(=O)Cc2coc3cc(C)ccc23)n1 (stereo not drawn) [TCMDC-143464]	< 4.3	< 4.3	7.6	< 4.3	< 4.3	< 4.3
CNc1cncc(C2CCCN2C(=O)Cc2ccc3ccccc3c2)n1 (stereo not drawn) [TCMDC-143465]	< 4.3	< 4.3	7	< 4.3	< 4.3	< 4.3
O=C(NCCc1nc(-c2ccc(F)c(F)c2)n[nH]1)C1CCCCC1 [TCMDC-143466]	< 4.3	4.5	4.6	–	–	–
COc1ccc(CN2CCCCC2c2nc(-c3cccnc3)no2)cc1 (stereo not drawn) [TCMDC-143467]	< 4.3	< 4.3	6.7	< 4.3	< 4.3	< 4.3
COc1ccc(C(=O)N2CCC(Nc3cccnc3)C2)c(OC)n1 (stereo not drawn) [TCMDC-143474]	< 4.3	< 4.3	7.2	< 4.3	< 4.3	< 4.3
CC(Cn1ccnc1)NC(=O)COc1ccc(Cl)c(Cl)c1 (stereo not drawn) [TCMDC-143479]	< 4.3	< 4.3	7.2	< 4.3	< 4.3	< 4.3
O=C(c1cnn(-c2ccccc2)n1)N1CCCC(n2ccnc2)C1 (stereo not drawn) [TCMDC-143492]	< 4.3	< 4.3	7.1	< 4.3	< 4.3	< 4.3
Cc1ccccc1OCC(=O)N1CCCN(c2cccnn2)CC1 [TCMDC-143495]	< 4.3	< 4.3	7.1	< 4.3	< 4.3	< 4.3
CC(Cn1ccnc1)NC(=O)C1CC1c1cccc(Cl)c1Cl (stereo not drawn) [TCMDC-143506]	< 4.3	< 4.3	6.9	< 4.3	< 4.3	< 4.3
COc1ccc2ncc(F)c(NC(=O)[C@]3(O)CC[C@@H](NCc4ccc5c(c4)OCCO5)CC3)c2n1.Cl [TCMDC-143507]	4.4	4.4	4.2	4.4	4.4	4.4
O=C(Cn1cnc2cc([N+](=O)[O-])ccc2c1=O)NCCc1ccc(Cl)cc1Cl [TCMDC-143519]	5.9	6.1	< 4	–	–	–
O=c1ccn(-c2ccc([N+](=O)[O-])cc2Cl)c2ccc(F)cc12 [TCMDC-143520]	< 4.3	< 4.3	4.8	< 4.3	< 4.3	< 4.3
COc1ccc2nccc([C@H](O)CN3CC[C@H](NC(=O)c4ccc(Br)cc4)[C@@H](O)C3)c2n1 [TCMDC-143527]	< 4.3	< 4.3	5.2	< 4.3	< 4.3	< 4.3
COc1ccc([N+](=O)[O-])cc1NC(=O)Nc1cccc(Cl)c1 [TCMDC-143528]	5.6	< 4.3	< 4	–	–	–
O=C(Nc1cccc(Cl)c1)N1CCCCC1c1cccnc1 (stereo not drawn) [TCMDC-143529]	< 4.3	< 4.3	7.7	< 4.3	< 4.3	< 4.3
Cc1ccc(C)c(-n2nnnc2Sc2nc([N+](=O)[O-])nn2C)c1 [TCMDC-143530]	5.3	5.4	< 4	–	–	–
